Data reported in patent publication US12570675B2, “Boronic acid compounds” (LG CHEM, LTD., priority 2020, dated 2026).

Target: Proteasome chymotrypsin-like activity (S26 protein from RPMI8226 cells) (Homo sapiens, UniProt P28074)
Assay type: biochemical
Conditions: S26 protein from RPMI8226 cell extract 2 ug/well, substrate 20 uM, 37° C., 90 minutes; read-out: Proteasome chymotrypsin-like activity inhibition IC50
Outline: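 Inhibition is measured in crude proteasome (S26) from RPMI8226 cells at 2 ug/well, using 20 uM substrate specific to each activity: Suc-LLVY-AMC for chymotrypsin-like, Z-LLE-AMC for caspase-like. Compounds span a dilution series from 10 uM.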

Chain of Proteasome chymotrypsin-like activity (S26 protein from RPMI8226 cells) (P28074 60-263 limits assumed): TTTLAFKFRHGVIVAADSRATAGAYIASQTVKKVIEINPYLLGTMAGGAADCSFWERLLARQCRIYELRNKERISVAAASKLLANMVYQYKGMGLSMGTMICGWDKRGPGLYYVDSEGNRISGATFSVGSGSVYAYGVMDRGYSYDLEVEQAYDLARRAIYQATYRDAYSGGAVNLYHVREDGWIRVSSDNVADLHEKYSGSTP

| SMILES | IC50 [nM] |
| --- | --- |
| CC(C)C[C@H](NC(=O)C12CCCC1C(CNC(=O)c1nccc3ccccc13)=NO2)B(O)O (stereo partly drawn) [Example 198, ((1R)-1-(3-((isoquinolin-1-carboxamido)methyl)-3a,5,6,6a-tetrahydro-4H-cyclopenta[d]isoxazol-6a-carboxamido)-3-methylbutyl)boronic acid] | < 100 |
| CC(C)C[C@H](NC(=O)C12CCCC1C(CNC(=O)c1cccn3ccnc13)=NO2)B(O)O (stereo partly drawn) [Example 199, ((1R)-1-(3-((imidazo[1,2-a]pyridin-8-carboxamido)methyl)-3a,5,6,6a-tetrahydro-4H-cyclopenta[d]isoxazol-6a-carboxamido)-3-methylbutyl)boronic acid] | < 1000 |
| CC(C)C[C@H](NC(=O)C1(Cc2cccc(F)c2F)CC(CNC(=O)c2nccc3ccccc23)=NO1)B(O)O (stereo partly drawn) [Example 203, ((1R)-1-(5-(2,3-difluorobenzyl)-3-((isoquinolin-1-carboxamido)methyl)-4,5-dihydroisoxazol-5-carboxamido)-3-methylbutyl)boronic acid] | < 10 |
| CC(C)C[C@H](NC(=O)C1(COC2CCCCC2)CC(CNC(=O)c2nccc3ccccc23)=NO1)B(O)O (stereo partly drawn) [Example 214, ((1R)-1-(5-((cyclohexyloxy)methyl)-3-((isoquinolin-1-carboxamido)methyl)-4,5-dihydroisoxazol-5-carboxamido)-3-methylbutyl)boronic acid] | < 10 |
| CC(C)C[C@H](NC(=O)C1(Cc2cccc(C(F)(F)F)c2)CC(CNC(=O)c2nccc3ccccc23)=NO1)B(O)O (stereo partly drawn) [Example 215, ((1R)-1-(3-((isoquinolin-1-carboxamido)methyl)-5-(3-(trifluoromethyl)benzyl)-4,5-dihydroisoxazol-5-carboxamido)-3-methylbutyl)boronic acid] | < 10 |
| CC(C)C[C@H](NC(=O)C1(Cc2cccc(OC(F)(F)F)c2)CC(CNC(=O)c2nccc3ccccc23)=NO1)B(O)O (stereo partly drawn) [Example 216, ((1R)-1-(3-((isoquinolin-1-carboxamido)methyl)-5-(3-(trifluoromethoxy)benzyl)-4,5-dihydroisoxazol-5-carboxamido)-3-methylbutyl)boronic acid] | < 10 |
| Cc1cccc(CC2(C(=O)N[C@@H](CC(C)C)B(O)O)CC(CNC(=O)c3sc(C)nc3C)=NO2)c1 (stereo partly drawn) [Example 217, ((1R)-1-(3-((2,4-dimethylthiazol-5-carboxamido)methyl)-5-(3-methylbenzyl)-4,5-dihydroisoxazol-5-carboxamido)-3-methylbutyl)boronic acid] | < 10 |
| Cc1cc(C(=O)NCC2=NOC(Cc3ccccc3)(C(=O)N[C@@H](CC(C)C)B(O)O)C2)n(C2CCOCC2)n1 (stereo partly drawn) [Example 218, ((1R)-1-(5-benzyl-3-((3-methyl-1-(tetrahydro-2H-pyran-4-yl)-1H-pyrazol-5-carboxamido)methyl)-4,5-dihydroisoxazol-5-carboxamido)-3-methylbutyl)boronic acid] | < 10 |
| Cc1nc(C)c(C(=O)NCC2=NOC(Cc3cccc(Cl)c3)(C(=O)N[C@@H](CC(C)C)B(O)O)C2)s1 (stereo partly drawn) [Example 219, ((1R)-1-(5-(3-chlorobenzyl)-3-((2,4-dimethylthiazol-5-carboxamido)methyl)-4,5-dihydroisoxazol-5-carboxamido)-3-methylbutyl)boronic acid] | < 10 |
| CC(C)C[C@H](NC(=O)C1(Cc2cccc(Cl)c2)CC(CNC(=O)c2cc(C(C)C)on2)=NO1)B(O)O (stereo partly drawn) [Example 223, ((1R)-1-(5-(3-chlorobenzyl)-3-((5-isopropylisoxazol-3-carboxamido)methyl)-4,5-dihydroisoxazol-5-carboxamido)-3-methylbutyl)boronic acid] | < 10 |
| COc1cccc(CC2(C(=O)N[C@@H](CC(C)C)B(O)O)CC(CNC(=O)c3cc(C(C)(C)C)nn3C(C)C)=NO2)c1 (stereo partly drawn) [Example 231, ((1R)-1-(3-((3-(tert-butyl)-1-isopropyl-1H-pyrazol-5-carboxamido)methyl)-5-(3-methoxybenzyl)-4,5-dihydroisoxazol-5-carboxamido)-3-methylbutyl)boronic acid] | < 10 |
| COc1cccc(CC2(C(=O)N[C@@H](CC(C)C)B(O)O)CC(CNC(=O)c3c(Cl)c(C)nn3C(C)C)=NO2)c1 (stereo partly drawn) [Example 233, ((1R)-1-(3-((4-chloro-1-isopropyl-3-methyl-1H-pyrazol-5-carboxamido)methyl)-5-(3-methoxybenzyl)-4,5-dihydroisoxazol-5-carboxamido)-3-methylbutyl)boronic acid] | < 10 |

Next, values leading:

| IC50 [nM] | SMILES |
| --- | --- |
| < 10 | Cc1nn(C(C)C)cc1C(=O)NCC1=NOC(Cc2ccccc2)(C(=O)N[C@@H](CC(C)C)B(O)O)C1 (stereo partly drawn) [Example 206, ((1R)-1-(5-benzyl-3-((1-isopropyl-3-methyl-1H-pyrazol-4-carboxamido)methyl)-4,5-dihydroisoxazol-5-carboxamido)-3-methylbutyl)boronic acid] |
| < 10 | CC(C)C[C@H](NC(=O)C1(Cc2ccccc2)CC(CNC(=O)c2cn(C)c3ccccc23)=NO1)B(O)O (stereo partly drawn) [Example 208, ((1R)-1-(5-benzyl-3-((1-methyl-1H-indol-3-carboxamido)methyl)-4,5-dihydroisoxazol-5-carboxamido)-3-methylbutyl)boronic acid] |
| < 10 | CC(C)C[C@H](NC(=O)C1(Cc2ccccc2)CC(CNC(=O)c2ccnc3c2ccn3C)=NO1)B(O)O (stereo partly drawn) [Example 210, ((1R)-1-(5-benzyl-3-((1-methyl-1H-pyrrolo[2,3-b]pyridin-4-carboxamido)methyl)-4,5-dihydroisoxazol-5-carboxamido)-3-methylbutyl)boronic acid] |
| < 10 | Cc1cc(C(=O)NCC2=NOC(Cc3ccccc3)(C(=O)N[C@@H](CC(C)C)B(O)O)C2)n(-c2ccccn2)n1 (stereo partly drawn) [Example 213, ((1R)-1-(5-benzyl-3-((3-methyl-1-(pyridin-2-yl)-1H-pyrazol-5-carboxamido)methyl)-4,5-dihydroisoxazol-5-carboxamido)-3-methylbutyl)boronic acid] |
| < 10 | CC(C)C[C@H](NC(=O)C1(Cc2ccccc2)CC(CNC(=O)c2cnn(C)c2)=NO1)B(O)O (stereo partly drawn) [Example 220, ((1R)-1-(5-benzyl-3-((1-methyl-1H-pyrazol-4-carboxamido)methyl)-4,5-dihydroisoxazol-5-carboxamido)-3-methylbutyl)boronic acid] |
| < 10 | CC(C)C[C@H](NC(=O)C1(Cc2ccccc2)CC(CNC(=O)c2cc(-c3ccccn3)nn2C(C)C)=NO1)B(O)O (stereo partly drawn) [Example 221, ((1R)-1-(5-benzyl-3-((1-isopropyl-3-(pyridin-2-yl)-1H-pyrazol-5-carboxamido)methyl)-4,5-dihydroisoxazol-5-carboxamido)-3-methylbutyl)boronic acid] |
| < 10 | Cc1nn(C(C)C)c(C(=O)NCC2=NOC(Cc3ccccc3)(C(=O)N[C@@H](CC(C)C)B(O)O)C2)c1Cl (stereo partly drawn) [Example 222, ((1R)-1-(5-benzyl-3-((4-chloro-1-isopropyl-3-methyl-1H-pyrazol-5-carboxamido)methyl)-4,5-dihydroisoxazol-5-carboxamido)-3-methylbutyl)boronic acid] |
| < 10 | Cc1cc(C(=O)NCC2=NOC(Cc3cccc(Cl)c3)(C(=O)N[C@@H](CC(C)C)B(O)O)C2)n(C(C)C)n1 (stereo partly drawn) [Example 225, ((1R)-1-(5-(3-chlorobenzyl)-3-((1-isopropyl-3-methyl-1H-pyrazol-5-carboxamido)methyl)-4,5-dihydroisoxazol-5-carboxamido)-3-methylbutyl)boronic acid] |
| < 25 | Cc1nn(C)cc1C(=O)NCC1=NOC(Cc2ccccc2)(C(=O)N[C@@H](CC(C)C)B(O)O)C1 (stereo partly drawn) [Example 226, ((1R)-1-(5-benzyl-3-((1,3-dimethyl-1H-pyrazol-4-carboxamido)methyl)-4,5-dihydroisoxazol-5-carboxamido)-3-methylbutyl)boronic acid] |
| < 10 | CC(C)C[C@H](NC(=O)C1(Cc2ccccc2)CC(CNC(=O)c2cc(C(C)C)nn2C(C)C)=NO1)B(O)O (stereo partly drawn) [Example 227, ((1R)-1-(5-benzyl-3-((1,3-diisopropyl-1H-pyrazol-5-carboxamido)methyl)-4,5-dihydroisoxazol-5-carboxamido)-3-methylbutyl)boronic acid] |
| < 10 | CC(C)C[C@H](NC(=O)C1(Cc2ccccc2)CC(CNC(=O)c2cc(-c3cccnc3)nn2C(C)C)=NO1)B(O)O (stereo partly drawn) [Example 228, ((1R)-1-(5-benzyl-3-((1-isopropyl-3-(pyridin-3-yl)-1H-pyrazol-5-carboxamido)methyl)-4,5-dihydroisoxazol-5-carboxamido)-3-methylbutyl)boronic acid] |
| < 10 | CC(C)C[C@H](NC(=O)C1(Cc2ccccc2)CC(CNC(=O)c2cc(-c3ccncc3)nn2C(C)C)=NO1)B(O)O (stereo partly drawn) [Example 229, ((1R)-1-(5-benzyl-3-((1-isopropyl-3-(pyridin-4-yl)-1H-pyrazol-5-carboxamido)methyl)-4,5-dihydroisoxazol-5-carboxamido)-3-methylbutyl)boronic acid] |
| < 10 | COc1cccc(CC2(C(=O)N[C@@H](CC(C)C)B(O)O)CC(CNC(=O)c3cc(-c4ccccc4)nn3C(C)C)=NO2)c1 (stereo partly drawn) [Example 230, ((1R)-1-(3-((1-isopropyl-3-phenyl-1H-pyrazol-5-carboxamido)methyl)-5-(3-methoxybenzyl)-4,5-dihydroisoxazol-5-carboxamido)-3-methylbutyl)boronic acid] |
| < 10 | COc1cccc(CC2(C(=O)N[C@@H](CC(C)C)B(O)O)CC(CNC(=O)c3cc(C)nn3C(C)C)=NO2)c1 (stereo partly drawn) [Example 232, ((1R)-1-(3-((1-isopropyl-3-methyl-1H-pyrazol-5-carboxamido)methyl)-5-(3-methoxybenzyl)-4,5-dihydroisoxazol-5-carboxamido)-3-methylbutyl)boronic acid] |
| < 10 | Cc1cccc(CC2(C(=O)N[C@@H](CC(C)C)B(O)O)CC(CNC(=O)c3cc(C)nn3C(C)C)=NO2)c1 (stereo partly drawn) [Example 234, ((1R)-1-(3-((1-isopropyl-3-methyl-1H-pyrazol-5-carboxamido)methyl)-5-(3-methylbenzyl)-4,5-dihydroisoxazol-5-carboxamido)-3-methylbutyl)boronic acid] |
